Source: patent US7776890B2, “1H-indazole compounds” (Eisai R&D Management Co., Ltd., priority 2005, dated 2010)
pIC50: −log10 of the molar value.

Target: T1, Human JNK 3 (Homo sapiens, UniProt P53779)
T1 construct: made in house; host or cells: Escherichia coli
Test: Determination of JNK 3 Inhibition
Assay type: biochemical
Conditions: 50% inhibitory concentration on the enzymatic activity of JNK; GST-JNK 3, substrate GST-c-Jun, 3.33 μM of ATP, 30 minutes
Method: Human JNK 3 was expressed as a fusion protein (GST-JNK 3) with glutathione S-transferase (GST) in Escherichia coli and was purified using glutathione Sepharose 4B beads. The amino acid sequence 1-169 of c-Jun was […] as a fusion protein (GST-c-Jun) with GST in Escherichia coli, was purified using glutathione Sepharose 4B beads and was used as a substrate. A test compound was diluted with 100% dimethyl sulfoxide into 10 mM and was then further diluted with 10% aqueous dimethyl sulfoxide solution to yield a dilution series. To each well of 96-well OPTI plate (available from Packard) were placed 20 μl of the diluted compound, 30 μl of a substrate solution (1.2 μg of GST-c-Jun, […], 0.2 μCi of [γ-^33P]ATP, 25 mM of HEPES pH=7.5, 10 mM of magnesium acetate, and 3.33 μM of ATP), and 50 μl of an enzyme solution (0.04 μg of GST-JNK 3, 25 mM of HEPES pH=7.5, and 10 mM magnesium acetate) up to 100 μl, and the mixture was allowed to react for 30 minutes. After terminating the reaction by adding 100 μl of a reaction terminator (80 mM ATP, 50 mg/ml glutathione SPA beads (available from Amersham Pharmacia Biotech)), the reaction mixture was shaken for 30 minutes. The mixture was centrifuged at room temperature at 1000×g for 5 minutes, and the emission intensity thereof was determined on a TopCount™ illuminator (available from Packard). The activity is expressed by the 50% inhibitory concentration on the enzymatic activity of JNK, i.e., IC50 (nM).

T1 sequence (P53779 whole entry): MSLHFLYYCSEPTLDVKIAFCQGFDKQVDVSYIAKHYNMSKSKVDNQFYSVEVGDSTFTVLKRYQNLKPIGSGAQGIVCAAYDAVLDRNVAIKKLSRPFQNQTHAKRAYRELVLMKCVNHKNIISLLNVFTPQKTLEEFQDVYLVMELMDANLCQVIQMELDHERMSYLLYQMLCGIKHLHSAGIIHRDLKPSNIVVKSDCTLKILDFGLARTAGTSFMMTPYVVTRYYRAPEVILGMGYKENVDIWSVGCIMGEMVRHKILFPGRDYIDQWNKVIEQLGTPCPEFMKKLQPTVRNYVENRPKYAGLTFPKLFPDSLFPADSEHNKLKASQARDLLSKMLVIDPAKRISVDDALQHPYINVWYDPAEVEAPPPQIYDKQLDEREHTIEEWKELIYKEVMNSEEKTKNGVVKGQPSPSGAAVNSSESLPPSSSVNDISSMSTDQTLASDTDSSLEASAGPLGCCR

SMILES | pIC50
O=C(Cc1cccs1)Nc1ccc2[nH]nc(-c3cccc(F)c3)c2c1 [Example I-16, N1-[3-(3-Fluorophenyl)-1H-5-indazolyl]-2-(2-thienyl)acetamide] | 7.29
O=C(c1ccccc1)c1ccc2[nH]nc(-c3cccc(F)c3)c2c1 [Example I-26, [3-(3-Fluorophenyl)-1H-5-indazolyl](phenyl)methanone] | 6.95
O=C(Nc1ccc2[nH]nc(-c3cc4ccccc4o3)c2c1)c1ccco1 [Example I-48, N2-(3-Benzo[b]furan-2-yl-1H-5-indazolyl)-2-furamide] | 6.96
O=C(Nc1ccc2[nH]nc(-c3cc4ccccc4s3)c2c1)C1CCOC1 (centres unmarked) [Example I-55, N3-(3-Benzo[b]thiophen-2-yl-1H-5-indazolyl)tetrahydro-3-furancarboxamide] | 7.28
CS(=O)(=O)Nc1ccc2[nH]nc(-c3ccc4ccccc4c3)c2c1 [Example I-94, N-[3-(2-Naphthyl)-1H-5-indazolyl]methanesulfonamide] | 6.79
O=C(Nc1ccc2[nH]nc(-c3ccc4ccccc4c3)c2c1)C1CCNCC1 [Example I-104, N4-[3-(2-Naphthyl)-1H-5-indazolyl]-4-piperidinecarboxamide] | 7.26
CC(=O)c1cccc(-c2n[nH]c3ccc(C(=O)N[C@@H](C)C(N)=O)cc23)c1 [Example I-132, N5-[(1S)-2-Amino-1-methyl-2-oxoethyl]-3-(3-acetylphenyl)-1H-5-indazolecarboxamide] | 6.71
O=C(NCCCN1CCCC1=O)c1ccc2[nH]nc(-c3cc4ccccc4s3)c2c1 [Example I-137, N5-[3-(2-Oxotetrahydro-1H-1-pyrrolyl)propyl]-3-benzo[b]thiophen-2-yl-1H-5-indazolecarboxamide] | 7.27
O=C(NC1CC1)c1ccc2[nH]nc(-c3cccc(F)c3)c2c1 [Example I-143, N5-Cyclopropyl-3-(3-fluorophenyl)-1H-5-indazolecarboxamide] | 6.66
O=C(Cc1ccsc1)Nc1ccc2[nH]nc(-c3cn4ccccc4n3)c2c1 [Example I-163, N1-(3-Imidazo[1,2-a]pyridin-2-yl-1H-5-indazolyl)-2-(3-thienyl)acetamide] | 7.10
COc1c(C(=O)NCc2ccco2)ccc2[nH]nc(-c3cccc(F)c3)c12 [Example II-5, 3-(3-Fluoro-phenyl)-4-methoxy-1H-indazole-5-carboxylic acid (furan-2-ylmethyl)-amide] | 7.00
COc1c(C(=O)NCC2CC2)ccc2[nH]nc(-c3cc4ccccc4o3)c12 [Example II-93, 3-Benzo[b]furan-2-yl-4-methoxy-1H-indazole-5-carboxylic acid cyclopropylmethyl-amide] | 6.86
C[C@H](NC(=O)c1ccc2[nH]nc(-c3cc4ccccc4s3)c2c1F)C(N)=O [Example II-126] | 6.84
O=C(Nc1cc2c(-c3ccc4ccccc4c3)n[nH]c2cc1F)C1CC1 [Example II-184, Cyclopropanecarboxylic acid {6-fluoro-3-naphthalen-2-yl-1H-indazol-5-yl}-amide] | 7.07
O=C(Cc1cccs1)Nc1cc2c(-c3ccc4ccccc4c3)n[nH]c2cc1F [Example II-189, N-(6-Fluoro-3-naphthalen-2-yl-1H-indazol-5-yl)-2-thiophen-2-yl-acetamide] | 6.71
COc1cccc(C(=O)NCc2cc3c(-c4ccc5ccccc5c4)n[nH]c3cc2F)c1 [Example II-208, N-{6-Fluoro-3-naphthalen-2-yl-1H-indazol-5-ylmethyl}-3-methoxy-benzamide] | 6.84
CS(=O)(=O)Nc1cc2c(-c3cc4ccccc4s3)n[nH]c2cc1F [Example II-218, N-(3-Benzo[b]thiophen-2-yl-6-fluoro-1H-indazol-5-yl)-methanesulfonamide] | 6.67
O=C(N[C@@H]1CCOC1=O)c1cc(F)c2[nH]nc(-c3ccc4ccccc4c3)c2c1 [Example II-259, 7-Fluoro-3-naphthalen-2-yl-1H-indazole-5-carboxylic acid [(3R)-2-oxo-tetrahydrofuran-3-yl]amide] | 6.83
CCCOc1c(C(=O)N[C@H](CO)C(C)C)ccc2[nH]nc(-c3cc4ccccc4o3)c12 [Example II-281, 3-Benzo[b]furan-2-yl-4-propoxy-1H-indazole-5-carboxylic acid ((1S)-1-hydroxymethyl-2-methyl-propyl)-amide] | 7.08
O=C(Cc1ccsc1)Nc1cc(F)c2[nH]nc(-c3cccc(F)c3)c2c1 [Example II-288, N-[7-Fluoro-3-(3-fluorophenyl)-1H-indazol-5-yl]-2-thiophen-3-ylacetamide] | 7.15
